In BigSolDB 2.1:

O=C(O)c1ccccc1Nc1ccccc1
solubility (mole fraction)
Conditions | in ethanol | in methanol | in tert-butanol
283.15 K | 0.0101 | 0.00519 | –
285.65 K | 0.0107 | 0.00556 | –
288.15 K | 0.0112 | 0.00606 | –
290.65 K | 0.0112 | 0.00653 | –
293.15 K | 0.0123 | 0.00701 | –
295.65 K | 0.0131 | 0.0073 | –
298.15 K | 0.0136 | 0.00796 | 0.0189
300.65 K | 0.0144 | 0.00837 | 0.02
303.15 K | 0.0154 | 0.00883 | 0.0225
305.65 K | 0.0163 | 0.00916 | 0.0256
308.15 K | 0.0175 | 0.00971 | 0.0279
310.65 K | 0.0187 | 0.0103 | 0.0298
313.15 K | 0.02 | 0.0117 | 0.0319
315.65 K | 0.0221 | 0.0134 | 0.0353
318.15 K | 0.0242 | 0.0156 | 0.0389
